In US20260191815A1, “THIOACRYLAMIDE DERIVATIVES FOR USE IN THE PREVENTION OR TREATMENT OF LIVER FIBROSIS” (CMR CUREDIAB METABOLIC RESEARCH GMBH, priority 2022, published 2026):

What was measured:
[1] = system: CCl4-intoxicated C57BL/6J mice; assay: CCl4-induced liver fibrosis in mice, oral gavage once daily for 2 weeks; type: in vivo, mouse
Protocol: C57BL/6J mice were housed in housing cages GM500 (500 cm^3) throughout the experimental phase. Animals' cages litters were changed at least once a week. They were housed in groups of 4 animals on a normal 12-hour light cycle (at 07:30 pm lights off), 22±2° C. and 55±10% relative humidity. Animals were acclimated for 5 days. During the whole phase standard diet (SAFE, Ref.: U8400G10R) and tap water were provided ad libitum.
After the acclimation period, mice were intoxicated with CCl4 i.p. twice weekly for 2 weeks to induce liver fibrosis. Body weight was recorded twice weekly for the 2-week intoxication period. After 2 weeks of CCl4 injection (~72 hours after the 4th injection of CCl4), mice were weighted and bled at ~08:00 am to collect blood (150 μL blood on heparin by retro-orbital bleeding under isoflurane anaesthesia) and measure plasma ALT and AST levels. Mice were then randomized into 2 homogenous groups (n=10/group) based on 1) ALT, 2) AST and 3) body weight.
Mice were treated by oral gavage once daily with vehicle or HK3 for 2 weeks (from day 0 to day 13). During this 2-week treatment period, CCl4 twice weekly i.p. injection was still performed until the end of the in-life phase. Body weight was recorded twice weekly, during the 2-week treatment period.
At the end of the treatment period (~48 hours after the last injection of CCl4), all mice were weighed and 3 h-fasted at ~10:00 am. The last dose of vehicle and test compound was administered at ~10:00 am, prior to blood collection (retro-orbital bleeding under isoflurane anesthesia for maximal volume/heparin) at ~1:00 pm. Plasma was isolated and immediately stored at −80° C.
Subsequently, the liver of each mouse was collected and weighted. Liver samples were dissected from the left lateral lobe for formalin-fixed paraffin-embedded samples for shipment for histology analysis (H&E and Sirius Red staining), % Sirius Red labelling and NAS scoring.
A total of 50 slides, each having a single hepatic lobe section stained with H&E (25) and Sirius red (25) were digitized using a Nanozoomer from Hamamatsu at Sciempath laboratory and posted on a secured digital slide server. They were downloaded and visualized using NDP viewer. Sections were evaluated with knowledge of groups but without knowledge of treatment. Each section was evaluated and individually scored.
A NAFLD scoring system (NAS), with which a total of four variables was qualitatively assessed and ranked with a score: (1) hepatocellular steatosis, (2) liver inflammation, (3) lobular fibrosis, and (4) hepatocyte ballooning.
An individual mouse NAS total score was calculated for each animal by summing up the score for (1) hepatocellular steatosis, (2) liver inflammation, (3) lobular fibrosis, and (4) hepatocyte ballooning. Whole-section histomorphometric measurements of positive area for Sirius Red were performed using computer-assisted image analysis on digitized sections. The histomorphometric measurements were generated with the software from Visiopharm (Denmark) using an automated approach. Analysis was performed on virtual whole sections at 20× magnification for morphometric evaluation. The pixel value at 20× magnification corresponded to 0.46 μm/pixel.
An algorithm was prepared for Sirius Red (SR) morphometric measurement on liver-stained sections. The algorithm was generated with the Bayesian linear segmentation tool in the software package, which was further refined through training on a subset of sections from 5 animals. Major histology section artefacts, as well as, large vascular empty spaces were automatically dissected and removed from area of interest (AOI) or detected positive area. Also, positive collagen from capsule and large vessels media layer was automatically excluded from SR positive area.
The total area analysed or AOI (mm2), the total SR positive area (mm2) and the percent “SR” area/total liver area analysed (%) were determined. […]

[2] = system: pro-collagen 1a1 in 3D PHH:NPC spheroid supernatants; assay: Pro-collagen 1a1 ELISA in supernatants of 3D PHH:NPC NASH spheroids; type: cell-based, human; settings: NASH medium
Protocol: Experiments were conducted using HepaPredict's (HepaPredict AB, Sweden) 3D primary human hepatocyte (PHH) spheroid NASH model (e.g. as published in Bell et al. Sci Rep. 2016 May 4; 6:25187. doi: 10.1038/srep25187).
Cryopreserved primary human hepatocytes were obtained from BioIVT (USA) and nonparenchymal cells (NPC) from LifeNetHealth (USA). After thawing, PHH-NPC cocultures were seeded in a multi-well 96-well Elplasia plate (Corning) in William's E medium containing 11 mM glucose, 10 μg/mL (control) or 10 mg/mL insulin (NASH), 100 nM dexamethasone, 5.5 mg/L transferrin, 6.7 μg/L selenite, 2 mM L-glutamine, 1 U/mL penicillin, 0.1 mg/mL streptomycin, and 10% fetal bovine serum (FBS). PHH-NPC cocultures were seeded in ratio of 6:1 PHH:NPC with a total of 40,000 PHH per well. When spheroids were formed, FBS was phased out and spheroids were maintained in either the same media to provide the negative control (“Ctrl”), or with addition of albumin-conjugated free fatty acid (FFA), comprised of 240 μM palmitic acid and 240 μM oleic acid (NASH medium) to provide the positive control (“NASH”). Compound exposure was conducted in NASH medium with medium exchanges every 48-72 hours.
After spheroid formation, cells were exposed to up to five different concentrations of the candidate molecules HK1 or HK3 (0.1 μM, 0.3 μM, 1 μM, 3 μM, and 10 μM) with or without FFA in the culture medium. All compound stocks and dilutions were prepared in DMSO, aliquoted and stored protected from light at −20° C. Fresh dosing solutions were prepared from these aliquots on each dosing day. All endpoints were evaluated after 14 days of exposure. […]
Supernatant from each well was collected and stored at […]. On the day of the measurement, samples were thawed and fibrosis was evaluated using the Human Pro-collagen 1 alpha 1 DuoSet ELISA (R&D Systems) where pro-collagen 1a1 levels were measured in culture supernatants. […]

[3] = CCl4 mice, oral gavage once daily, 2 weeks

Cc1cc(NC(=S)/C(C#N)=C(\O)C2CC2)ccc1[N+](=O)[O-] [HK3, 2-Cyano-3-cyclopropyl-3-hydroxy-N-(3-methyl-4-nitro-phenyl)-thioacrylamide]
percentage of Sirius Red labelling compared to baseline group ([1]; CCl4 mice, liver sections, p<0.01): significantly increased | percentage of Sirius Red labelling compared to the vehicle group ([1]; CCl4 mice, liver sections, p<0.05): significantly reduced | number of mice with a fibrosis score equal to 2 ([1]; CCl4 mice, n=10/group): 9 mice | number of mice with a fibrosis score equal to 3 ([1]; CCl4 mice, n=10/group): 1 mouse | body weight and body weight gain compared to vehicle treatment [1, 3]: not altered | liver weight and relative liver weight compared to vehicle treatment [1, 3]: did not change | plasma ALT and AST levels compared to vehicle treatment [1, 3]: did not change | fibrosis score, treated group versus vehicle-treated group ([1]; CCl4 mice, p<0.05): significant difference | fibrosis score, treated group versus baseline group ([1]; CCl4 mice, baseline = CCl4 for two weeks only): no significant difference | TNF-α levels in liver homogenates compared to CCl4-treated group ([1]; combined administration with CCl4, p<0.05): slight but significant downregulation | pro-collagen 1a1 levels compared to NASH ([2]; 1 μM): 82% | pro-collagen 1a1 levels compared to NASH ([2]; 3 μM): 73% | pro-collagen 1a1 levels compared to NASH ([2]; 10 μM): 64%
